The structures appear in SMILES notation.

The experiment addresses HIV-1 PR (Human immunodeficiency virus type 1 group M subtype B, UniProt P04585). Kind of experiment: HIV-protease inhibitory activity assay (FRET peptide substrate). Type of experiment: biochemical. Particulars: Test Example 1. The essentials: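 Inhibition of HIV-1 protease was measured as loss of fluorescence dequenching of a HiLyte Fluor 488/QXL 520 peptide at 2 μmol/L, pH 4.8, room temperature, 60 minute reaction. IC50 was derived by nonlinear four-parameter fitting.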
Broadly, the IC50 is the point on the concentration scale where inhibition reaches its midpoint. Read a high IC50 as weaker potency in that assay. `COc1ccc(S(=O)(=O)N(CC(C)C)CC(O)C(Cc2ccc(OCc3ccc4sc(-c5ccc(F)cc5)c(C(=O)O)c4c3)cc2)NC(=O)OC2COC3OCCC23)cc1` (stereo not shown) [Compound I-819] came in with an IC50 of 0.72 nM.

In turn, `COc1ccc(S(=O)(=O)N(CC(C)C)CC(O)C(Cc2ccc(OCc3ccccc3-c3nc(C4=CCC(C)(C)CC4)sc3C(=O)O)cc2)NC(=O)OC2COC3OCCC23)cc1` (stereo not shown) [Compound I-820] displayed an IC50 of 0.94 nM.

Compound `COc1ccc(S(=O)(=O)N(CC(C)C)CC(O)C(Cc2ccc(OCc3ccccc3-c3ccc4c(O)c(-c5ccc(Oc6ccccc6)cc5)c(=O)[nH]c4c3)cc2)NC(=O)OC2COC3OCCC23)cc1` (stereo not shown) [Compound I-821] displayed an IC50 of 2.24 nM.

As for `COc1ccc(S(=O)(=O)N(CC(C)C)CC(O)C(Cc2ccc(OCc3ccccc3-c3ccc4c(O)c(-c5ccc(Oc6ccccc6)cc5)c(=O)n(C)c4c3)cc2)NC(=O)OC2COC3OCCC23)cc1` (stereo not shown) [Compound I-822], 2.08 nM corresponded to half-maximal inhibition (IC50).

`COc1ccc(S(=O)(=O)N(CC(C)C)CC(O)C(Cc2ccc(OCc3ccccc3-c3sc(C)c(-c4ccccc4)c3C(=O)O)cc2)NC(=O)OC2COC3OCCC23)cc1` (stereo not shown) [Compound I-824] gave an IC50 of 1.01 nM.

Regarding `COc1ccc(S(=O)(=O)N(CC(C)C)CC(O)C(Cc2ccc(OCc3ncsc3-c3sc4c(c3C(=O)O)CC(C)(C)CC4)cc2)NC(=O)OC2COC3OCCC23)cc1` (stereo not shown) [Compound I-828], the IC50 stood at 0.96 nM.

Take `COc1ccc(S(=O)(=O)N(CC(C)C)CC(O)C(Cc2ccc(OCc3ccccc3-c3sc4c(c3C(=O)O)C3CC(C4)C3(C)C)cc2)NC(=O)OC2COC3OCCC23)cc1` (stereo not shown) [Compound I-829]: the IC50 is 1.2 nM.

As to `CC(C)CN(CC(O)C(Cc1ccc(CCc2sc3c(c2C(=O)O)CC(C)(C)CC3)cc1)NC(=O)OC1COC2OCCC12)S(=O)(=O)c1ccc2ncsc2c1` (stereo not shown) [Compound I-831], inhibition was half-maximal at 1.49 nM (IC50).

With `COc1ccc(S(=O)(=O)N(CC(C)C)CC(O)C(Cc2ccc(OCc3ccccc3-c3sc4c(c3C(=O)O)CCC(=O)C4)cc2)NC(=O)OC2COC3OCCC23)cc1` (stereo not shown) [Compound I-833], the IC50 was found to be 1.54 nM.

The compound `COc1ccc(S(=O)(=O)N(CC(C)C)CC(O)C(Cc2ccc(OCc3ccccc3-c3oc4c(c3C(=O)O)CCCC4)cc2)NC(=O)OC2COC3OCCC23)cc1` (stereo not shown) [Compound I-834] had an IC50 of 1.15 nM.

For `COc1ccc(S(=O)(=O)N(CC(C)C)CC(O)C(Cc2ccc(OCc3ccccc3-n3nc(C(=O)O)c4c3CCC(C)(C)C4)cc2)NC(=O)OC2COC3OCCC23)cc1` (stereo not shown) [Compound I-837], the IC50 worked out at 0.82 nM.

Compound `COc1ccc(S(=O)(=O)N(CC2CCC(=O)N2)CC(O)C(Cc2ccc(OCc3ccccc3-c3sc4c(c3C(=O)O)CC(C)(C)CC4)cc2)NC(=O)OC2COC3OCCC23)cc1` (stereo not shown) [Compound I-838] gave an IC50 of 0.76 nM.

Compound `CC(C)CN(CC(O)C(Cc1ccc(OCc2ccc(-c3ccc(F)cc3F)nc2C(=O)O)cc1)NC(=O)OC1COC2OCCC12)S(=O)(=O)c1ccc2ncsc2c1` (stereo not shown) [Compound I-840] had an IC50 of 0.71 nM.

In turn, `CC(C)CN(CC(O)C(Cc1ccc(OCc2nc(Oc3ccccc3)sc2C(=O)O)cc1)NC(=O)OC1COC2OCCC12)S(=O)(=O)c1ccc2ncsc2c1` (stereo not shown) [Compound I-842] displayed an IC50 of 0.69 nM.

In turn, `COc1ccc(S(=O)(=O)N(CC(C)C)CC(O)C(Cc2ccc(OCc3ccccc3-c3sc(Oc4ccccc4)nc3C(=O)O)cc2)NC(=O)OC2COC3OCCC23)cc1` (stereo not shown) [Compound I-843] came in with an IC50 of 1.33 nM.

With `COc1ccc(S(=O)(=O)N(CC(C)C)CC(O)C(Cc2ccc(OCc3ccccc3-c3sc(N4CCC(C)(C)CC4)nc3C(=O)O)cc2)NC(=O)OC2COC3OCCC23)cc1` (stereo not shown) [Compound I-844], the IC50 was determined as 1.01 nM.

With `COc1ccc(S(=O)(=O)N(CC(C)C)CC(O)C(Cc2ccc(OCc3ccccc3-c3sc(N4CCC(C)(C)CC4)nc3C(=O)O)cc2)NC(=O)OC2COC3OCCC23)cc1` (stereo not shown) [Compound I-845], half-maximal inhibition (IC50) required 0.85 nM.

The compound `COc1ccc(S(=O)(=O)N(CC(C)C)CC(O)C(Cc2ccc(OCc3ccccc3-c3sc(N4CCCC(C)(C)C4)nc3C(=O)O)cc2)NC(=O)OC2COC3OCCC23)cc1` (stereo not shown) [Compound I-846] returned an IC50 of 1.2 nM.

As to `COc1ccc(S(=O)(=O)N(CC(C)C)CC(O)C(Cc2ccc(OCc3ccccc3-c3sc(-c4ccccc4)cc3C(=O)O)cc2)NC(=O)OC2COC3OCCC23)cc1` (stereo not shown) [Compound I-848], the IC50 came out at 0.89 nM.

`COc1ccc(S(=O)(=O)N(CC(C)C)CC(O)C(Cc2ccc(OCc3ccccc3-c3sc(Cl)c(-c4ccccc4)c3C(=O)O)cc2)NC(=O)OC2COC3OCCC23)cc1` (stereo not shown) [Compound I-849] registered an IC50 of 0.78 nM.

Turning to `COc1ccc(S(=O)(=O)N(CC(C)C)CC(O)C(Cc2ccc(OCc3ccccc3-c3sc(Cl)c(CC(C)C)c3C(=O)O)cc2)NC(=O)OC2COC3OCCC23)cc1` (stereo not shown) [Compound I-850], the IC50 was determined as 1.03 nM.

As for `COc1ccc(S(=O)(=O)N(CC(C)C)CC(O)C(Cc2ccc(NCc3ccccc3-c3sc4c(c3C(=O)O)CC(C)(C)CC4)cc2)NC(=O)OC2COC3OCC(OC)C23)cc1` (stereo not shown) [Compound I-853], the midpoint of inhibition, the IC50, lay at 1.98 nM.

As for `CC(C)CN(CC(O)C(Cc1ccc(NCc2ccccc2C(=O)Nc2sc3c(c2C(=O)O)CC(C)(C)CC3)cc1)NC(=O)OC1COC2OCCC12)S(=O)(=O)c1ccc2c(c1)OCO2` (stereo not shown) [Compound I-854], the IC50 was determined as 3.16 nM.

Compound `CC(C)CN(CC(O)C(Cc1ccc(NCc2ccccc2C(=O)Nc2sc3c(c2C(=O)O)CC(C)(C)CC3)cc1)NC(=O)OC1COC2OCCC12)S(=O)(=O)c1ccc2ncsc2c1` (stereo not shown) [Compound I-855] registered an IC50 of 2.66 nM.

Turning to `COc1ccc(S(=O)(=O)N(CC(C)C)CC(O)C(Cc2ccc(N3CCC(C(=O)N(C)c4sc5c(c4C(=O)O)CC(C)(C)CC5)C3)cc2)NC(=O)OC2COC3OCCC23)cc1` (stereo not shown) [Compound I-863], the IC50 amounted to 2.55 nM.

In turn, `COc1ccc(S(=O)(=O)N(CC(C)C)CC(O)C(Cc2ccc(N(C)CCOc3ccccc3-c3sc4c(c3C(=O)O)CC(C)(C)CC4)cc2)NC(=O)OC2COC3OCCC23)cc1` (stereo not shown) [Compound I-864] had an IC50 of 2.25 nM.

In turn, `COc1ccc(S(=O)(=O)N(CC(C)C)CC(O)C(Cc2ccc(N3CCC(C(=O)Nc4sc5c(c4C(=O)O)CC(C)(C)CC5)C3)cc2)NC(=O)OC2COC3OCCC23)cc1` (stereo not shown) [Compound I-865] gave an IC50 of 2.21 nM.

Compound `COc1ccc(S(=O)(=O)N(CC(C)C)CC(O)C(Cc2ccc(NCc3cc(C(F)(F)F)ccc3-c3sc4c(c3C(=O)O)CC(C)(C)CC4)cc2)NC(=O)OC2COC3OCCC23)cc1` (stereo not shown) [Compound I-868] displayed an IC50 of 4.3 nM.

Take `COc1ccc(S(=O)(=O)N(CC2CCCC2)CC(O)C(Cc2ccc(NCc3cc(C(F)(F)F)ccc3-c3sc4c(c3C(=O)O)CC(C)(C)CC4)cc2)NC(=O)OC2COC3OCCC23)cc1` (stereo not shown) [Compound I-870]: it took 9.33 nM to reach half-maximal inhibition (IC50).

`CC(C)CN(CC(O)C(Cc1ccc(NCc2cc(C(F)(F)F)ccc2-c2sc3c(c2C(=O)O)CC(C)(C)CC3)cc1)NC(=O)OC1COC2OCCC12)S(=O)(=O)c1ccc2ncsc2c1` (stereo not shown) [Compound I-871] showed an IC50 of 4.93 nM.

With `CC1(C)CCc2sc(-c3ccc(C(F)(F)F)cc3CNc3ccc(CC(NC(=O)OC4COC5OCCC45)C(O)CN(CC4CCC4)S(=O)(=O)c4ccc5ncsc5c4)cc3)c(C(=O)O)c2C1` (stereo not shown) [Compound I-872], the midpoint of inhibition, the IC50, lay at 4.99 nM.

As for `CC1(C)CCc2sc(-c3ccc(C(F)(F)F)cc3CNc3ccc(CC(NC(=O)OC4COC5OCCC45)C(O)CN(CC4CCCC4)S(=O)(=O)c4ccc5ncsc5c4)cc3)c(C(=O)O)c2C1` (stereo not shown) [Compound I-873], the IC50 was 8.43 nM.

In the case of `CC(C)CN(CC(O)C(Cc1ccc(NCc2cc(C(F)(F)F)ccc2-c2sc3c(c2C(=O)O)CC(C)(C)CC3)cc1)NC(=O)OC1COC2OCCC12)S(=O)(=O)c1ccc2c(c1)OCO2` (stereo not shown) [Compound I-874], the IC50 stood at 5.12 nM.

`CC1(C)CCc2sc(-c3ccc(C(F)(F)F)cc3CNc3ccc(CC(NC(=O)OC4COC5OCCC45)C(O)CN(CC4CCC4)S(=O)(=O)c4ccc5c(c4)OCO5)cc3)c(C(=O)O)c2C1` (stereo not shown) [Compound I-875] returned an IC50 of 6.78 nM.

Take `CC1(C)CCc2sc(-c3ccc(C(F)(F)F)cc3CNc3ccc(CC(NC(=O)OC4COC5OCCC45)C(O)CN(CC4CCCC4)S(=O)(=O)c4ccc5c(c4)OCO5)cc3)c(C(=O)O)c2C1` (stereo not shown) [Compound I-876]: 7.13 nM corresponded to half-maximal inhibition (IC50).

The compound `COc1ccc(S(=O)(=O)N(CC(C)C)CC(O)C(Cc2ccc(NCC3CCCC3c3sc4c(c3C(=O)O)CC(C)(C)CC4)cc2)NC(=O)OC2COC3OCCC23)cc1` (stereo not shown) [Compound I-878] came in with an IC50 of 2.94 nM.

The compound `CC(C)CN(CC(O)C(Cc1ccc(N(C)Cc2ccccc2C(=O)Nc2sc3c(c2C(=O)O)CC(C)(C)CC3)cc1)NC(=O)OC1COC2OCCC12)S(=O)(=O)c1ccc2c(c1)OCO2` (stereo not shown) [Compound I-879] returned an IC50 of 3.78 nM.

Regarding `COc1ccc(S(=O)(=O)N(CC(C)C)CC(O)C(Cc2ccc(NCC3=C(c4sc5c(c4C(=O)O)CC(C)(C)CC5)CCC(F)(F)C3)cc2)NC(=O)OC2COC3OCCC23)cc1` (stereo not shown) [Compound I-880], the IC50 was found to be 4.7 nM.

Take `COc1ccc(S(=O)(=O)N(CC(C)C)CC(O)C(Cc2ccc(N(C)CC3=C(c4sc5c(c4C(=O)O)CC(C)(C)CC5)CCC(F)(F)C3)cc2)NC(=O)OC2COC3OCCC23)cc1` (stereo not shown) [Compound I-881]: it took 5.89 nM to reach half-maximal inhibition (IC50).

`COc1ccc(S(=O)(=O)N(CC(C)C)CC(O)C(Cc2ccc(NCC3CC(C)(C)CC3c3sc4c(c3C(=O)O)CC(C)(C)CC4)cc2)NC(=O)OC2COC3OCCC23)cc1` (stereo not shown) [Compound I-883]: inhibition was half-maximal at 2.15 nM (IC50).

With `COc1ccc(S(=O)(=O)N(CC(C)C)CC(O)C(Cc2ccc(NCc3ccccc3NC(=O)Nc3sc4c(c3C(=O)O)CC(C)(C)CC4)cc2)NC(=O)OC2COC3OCCC23)cc1` (stereo not shown) [Compound I-884], the IC50 was determined as 2.03 nM.

`COc1ccc(S(=O)(=O)N(CC(C)C)CC(O)C(Cc2ccc(NCc3nc4ccccc4cc3C(=O)Nc3sc4c(c3C(=O)O)CC(C)(C)CC4)cc2)NC(=O)OC2COC3OCCC23)cc1` (stereo not shown) [Compound I-885] gave an IC50 of 3.48 nM.

For the compound `COc1ccc(S(=O)(=O)N(CC(C)C)CC(O)C(Cc2ccc(NCC3CC(C)(C)CCC3c3sc4c(c3C(=O)O)CC(C)(C)CC4)cc2)NC(=O)OC2COC3OCCC23)cc1` (stereo not shown) [Compound I-886], the IC50 stood at 3.68 nM.
